Target: DNA topoisomerase 1 (Bos taurus)
Experiment: Compound was evaluated for the inhibition of DNA topoisomerase-1 of calf thymus

Row | IC50 | SMILES
1 | 111 µM | COc1cc(C(C)O)c(OC)c2c1C(=O)C=CC2=O (stereo not given) [6-(1-Hydroxy-ethyl)-5,8-dimethoxy-[1,4]naphthoquinone]
2 | 30.1 µM | CCCCCCC(O)c1cc(OC)c2c(c1OC)C(=O)C=CC2=O (stereo not given) [6-(1-Hydroxy-heptyl)-5,8-dimethoxy-[1,4]naphthoquinone]
3 | 39 µM | CCCCCC(O)c1cc(OC)c2c(c1OC)C(=O)C=CC2=O (stereo not given) [6-(1-Hydroxy-hexyl)-5,8-dimethoxy-[1,4]naphthoquinone]
4 | 43.9 µM | CCCCCCCC(O)c1cc(OC)c2c(c1OC)C(=O)C=CC2=O (stereo not given) [6-(1-Hydroxy-octyl)-5,8-dimethoxy-[1,4]naphthoquinone]
5 | 122 µM | CCC(O)c1cc(OC)c2c(c1OC)C(=O)C=CC2=O (stereo not given) [6-(1-Hydroxy-propyl)-5,8-dimethoxy-[1,4]naphthoquinone]

From BindingDB's records for doi:10.1016/s0960-894x(99)00397-2 (Chungnam National University, 1999)
